“Also recorded” adds a separate entry of the source.
Assays:
[1] = tested on: neuronal differentiated ReNcell VM cells; test: dsRNA mimetic (PolyIC)-induced neurodegeneration in differentiated ReNVM neurons, cell viability by Celltiter-Glo; type: cell-based, human; conditions: for viability of ReNVM neurons transfected with PolyIC: escalating doses of poly IC, 48 hours (2 days), relative to mock-transfected neurons, FIG. 3A-F; for rescue of PolyIC (dsRNA)-induced neurodegeneration / neuronal death: differentiated ReNVM human neurons transfected with PolyIC, FIGS. 4B-N
Experimental: FIGS. 3A-G. dsRNA induces a Type I interferon response and is sufficient to induced neurodegeneration in human neurons. A-E) Representative transmitted light images of differentiated ReNVM neurons transfected with increasing doses of PolyIC, a dsRNA mimetic, showing a dose-dependent loss of neurons after 48 hours. […] G) Western blots showing the elevated protein expression of type I interferon-stimulated genes in differentiated ReNVM cells 24 hour post transfection with PolyIC, using indicated antibodies.
FIGS. 4A-N. Inhibitors of key type I interferon regulators rescues PolyIC induced neurodegeneration in ReNVM cells.
Building on those findings, a novel in vitro human neuronal culture system was developed to recapitulate this pathophysiologic process. These cells can be used, e.g., to identify compounds that modulate dsRNA-mediated neurodegeneration, as a methodology for screening and validation of hits for the novel targets and related targets on the pathway for neurodegeneration and Alzheimer's disease pathogenesis as well as for purposes of drug screening and validation with the primary outcome being loss of neurons. Briefly, a dsRNA-mimetic was introduced into a human neural progenitor immortalized cell line, ReN VM cells, in vitro. There was profound induction of the Type I interferon signaling pathways that were stimulated in mouse models of neurodegeneration including the pattern recognition receptors, PKR and MDA5. Importantly, accelerated neuronal death was also observed over 48 hours that was dependent on the dose of the dsRNA introduced into the cytoplasm. These cell-based phenotypes in human neurons recapitulated and extended findings (described in PCT/US2015/060401) outlining cytoplasmic double-stranded RNA mediated neuronal cell death in multiple transgenic mouse lines (Nd1, Nd2, and Nd3), each expressing a different gene, and a model of induced cytoplasmic dsRNA of GFP causing accelerated neurodegeneration.
Deploying this cell-based in vitro model of accelerated neurodegeneration of human neurons, a number of inhibitors of Type I interferon signaling pathways were tested.
To determine if cytoplasmic dsRNA is sufficient to mediate neurodegeneration in human neurons, we transfected neuronal differentiated ReNcell VM cells 27, 28, a human neural cell line derived from ventral mesencephalon, with escalating doses of poly IC (which mimics a GC dinucleotide repeat). […] We observed a marked induction of the pattern recognition receptors MDA5 and PKR that are cytoplasmic receptors for dsRNA (FIG. 3G) and TBK1 phosphorylation (FIG. 4A). In addition, downstream signaling events, i.e., MAVS reduction and IRF3 translocation to the nucleus for the MDA5 pathway, and phosphorylation of p38 and HSP27 for the PKR pathway, indicate that that neurons are capable of mounting this innate immune response intrinsically. […]

IRF3 phosphorylation = IRF3 phosphorylation in poly-IC transfected ReNcell VM neurons; type: cell-based, human; conditions: poly-IC transfected ReNcell VM neurons treated with inhibitor
Excerpt: To determine if cytoplasmic dsRNA is sufficient to mediate neurodegeneration in human neurons, we transfected neuronal differentiated ReNcell VM cells 27, 28, a human neural cell line derived from ventral mesencephalon, with escalating doses of poly IC (which mimics a GC dinucleotide repeat). […] We observed a marked induction of the pattern recognition receptors MDA5 and PKR that are cytoplasmic receptors for dsRNA (FIG. 3G) and TBK1 phosphorylation (FIG. 4A). In addition, downstream signaling events, i.e., MAVS reduction and IRF3 translocation to the nucleus for the MDA5 pathway, and phosphorylation of p38 and HSP27 for the PKR pathway, indicate that that neurons are capable of mounting this innate immune response intrinsically.
Many mutations in the TBK1 coding region are linked to ALS and FTD in an autosomal dominant manner. Expression of these mutant isoforms have been difficult to detect at the RNA and protein levels, giving rise to the hypothesis that haploinsufficiency of TBK1 drives neurodegeneration. Inhibition of TBK1 kinase activity challenge the hypothesis that LOF mutations cause the pathogenesis. TBK1 is activated by polyubiquitination and regulated by proteins binding to its CCH domain, including optineurin which binds TBK1, is mutated in some familial forms of ALS that abrogates inhibition of IRF3 4.

## PolyIC
[1]
  viability of ReNVM neurons transfected with PolyIC: dose-dependent loss in cell viability
[1]; listed as poly IC
  viability of ReNVM neurons transfected with PolyIC: dose-dependent reduction in their viability

## N#CCNC(=O)c1ccc(-c2ccnc(Nc3ccc(N4CCOCC4)cc3)n2)cc1 [CYT387, N-(Cyanomethyl)-4-[2-[[4-(4-morpholinyl)phenyl]amino]-4-pyrimidinyl]benzamide]
[1]
  rescue of PolyIC (dsRNA)-induced neurodegeneration / neuronal death: blocked neurodegeneration in dose dependent manner; also recorded: rescued PolyIC induced neurodegeneration

## CC1(C)C(=O)C=C[C@]2(C)[C@H]3CC[C@@]4(C)[C@H](c5ccoc5)OC(=O)[C@H]5O[C@]54[C@]3(C)C=C[C@@H]12 [7DG]
[1]
  rescue of PolyIC (dsRNA)-induced neurodegeneration / neuronal death: did not show rescue of the neuronal death phenotype

## Cl.O=C(NN1CCC(N2CCCC2)CC1)c1ccc(Nc2nccc(-c3cc4ccccc4s3)n2)cc1 [IKK16, N-(4-Pyrrolidin-1-yl-piperidin-1-yl)-[4-(4-benzo[b]thiophen-2-yl-pyrimidin-2-ylamino)phenyl]carboxamide hydrochloride]
[1]; hydrochloride
  rescue of PolyIC (dsRNA)-induced neurodegeneration / neuronal death: reversed poly-IC-mediated neurodegeneration; also recorded: rescued PolyIC induced neurodegeneration
IRF3 phosphorylation
  IRF3 phosphorylation: reduced IRF3 phosphorylation

## O=C(NCCCNc1nc(Nc2cccc(NC(=O)N3CCCC3)c2)ncc1I)c1cccs1 [NK-6]
[1]
  rescue of PolyIC (dsRNA)-induced neurodegeneration / neuronal death: dose-dependent rescue of dsRNA-mediated neurodegeneration
[1]; listed as BX795
  rescue of PolyIC (dsRNA)-induced neurodegeneration / neuronal death: rescues poly-IC-mediated neurodegeneration in a dose dependent manner; also recorded: rescued PolyIC induced neurodegeneration

## O=C1Nc2ccc3ncsc3c2/C1=C/c1cnc[nH]1 [C16]
[1]
  rescue of PolyIC (dsRNA)-induced neurodegeneration / neuronal death: did not show rescue of the neuronal death phenotype

## C[C@@H]1CCN(C(=O)CC#N)C[C@@H]1N(C)c1ncnc2[nH]ccc12 [Tofacitinib, 3-((3R,4R)-4-methyl-3-(methyl(7H-pyrrolo [2,3-d]pyrimidin-4-yl)amino)piperidin-1-yl)-3-oxopropanenitrile]
[1]
  rescue of PolyIC (dsRNA)-induced neurodegeneration / neuronal death: blocked neurodegeneration in dose dependent manner; also recorded: rescued PolyIC induced neurodegeneration

## CCS(=O)(=O)N1CC(CC#N)(n2cc(-c3ncnc4[nH]ccc34)cn2)C1 [Baricitinib, 2-(3-(4-(7H-pyrrolo[2,3-d]pyrimidin-4-yl)-1H-pyrazol-1-yl)-1-(ethylsulfonyl)azetidin-3-yl)acetonitrile]
[1]
  rescue of PolyIC (dsRNA)-induced neurodegeneration / neuronal death: blocked neurodegeneration in dose dependent manner; also recorded: rescued PolyIC induced neurodegeneration

## Cc1cc(Nc2nc(N[C@@H](C)c3ncc(F)cn3)ncc2Cl)n[nH]1 [AZD1480, 5-Chloro-N2-[(1S)-1-(5-fluoro-2-pyrimidinyl)ethyl]-N4-(5-methyl-1H-pyrazol-3-yl)-2,4-pyrimidinediamine]
[1]
  rescue of PolyIC (dsRNA)-induced neurodegeneration / neuronal death: rescued PolyIC induced neurodegeneration

## NC(=O)Nc1sc(-c2ccc(F)cc2)cc1C(N)=O [NK-7, 2-[(Aminocarbonyl)amino]-5-(4-fluorophenyl)-3-thiophenecarboxamide]
[1]
  rescue of PolyIC (dsRNA)-induced neurodegeneration / neuronal death: dose-dependent rescue of dsRNA-mediated neurodegeneration
[1]; listed as TPCA1
  rescue of PolyIC (dsRNA)-induced neurodegeneration / neuronal death: reversed poly-IC-mediated neurodegeneration
[1]; listed as TPCA-1
  rescue of PolyIC (dsRNA)-induced neurodegeneration / neuronal death: rescued PolyIC induced neurodegeneration
IRF3 phosphorylation
  IRF3 phosphorylation: reduced IRF3 phosphorylation

## CC(C)c1ccc2oc3nc(N)c(C(=O)O)cc3c(=O)c2c1 [NK-10, amlexanox]
[1]
  rescue of PolyIC (dsRNA)-induced neurodegeneration / neuronal death: rescued neurodegeneration; also recorded: dose-dependent rescue of dsRNA-mediated neurodegeneration
[1]; listed as Amlexanox
  rescue of PolyIC (dsRNA)-induced neurodegeneration / neuronal death: rescued PolyIC induced neurodegeneration

## O=C(Nc1ccc(-c2ccnc(Nc3ccc(N4CCOCC4)cc3)n2)cc1)[C@@H]1CCCN1 [XL019, (S)-N-(4-(2-((4-morpholinophenyl)amino)pyrimidin-4-yl)phenyl)pyrrolidine-2-carboxamide]
[1]
  rescue of PolyIC (dsRNA)-induced neurodegeneration / neuronal death: blocked neurodegeneration in dose dependent manner; also recorded: rescued PolyIC induced neurodegeneration

## O=C(Nc1nc2cccc(-c3ccc(CN4CCS(=O)(=O)CC4)cc3)n2n1)C1CC1 [Filgotinib, N-[5-[4-[(1,1-Dioxido-4-thiomorpholinyl)methyl]phenyl][1,2,4]triazolo[1,5-a]pyridin-2-yl]cyclopropanecarboxamide]
[1]
  rescue of PolyIC (dsRNA)-induced neurodegeneration / neuronal death: blocked neurodegeneration in dose dependent manner; also recorded: rescued PolyIC induced neurodegeneration

## C1=C/COCc2cc(ccc2OCCN2CCCC2)Nc2nccc(n2)-c2cccc(c2)COC/1 [Pacritinib-1, 11-(2-pyrrolidin-1-yl-ethoxy)-14,19-dioxa-5,7,26-triaza-tetracyclo[19.3.1.1(2,6).1(8,12)]heptacosa-1(25),2(26),3,5,8,10,12(27),16,21,23-decaene]
[1]
  rescue of PolyIC (dsRNA)-induced neurodegeneration / neuronal death: blocked neurodegeneration in dose dependent manner; also recorded: rescued PolyIC induced neurodegeneration

## CNC(=O)c1ccc(C)c(-n2c(C)cc(OCc3ccc(F)cc3F)c(Br)c2=O)c1 [PH 797804]
[1]
  rescue of PolyIC (dsRNA)-induced neurodegeneration / neuronal death: did not show rescue of the neuronal death phenotype

## Cc1cnc(Nc2ccc(OCCN3CCCC3)cc2)nc1Nc1cccc(S(=O)(=O)NC(C)(C)C)c1 [TG101348, 2.N-tert-butyl-3-(5-methyl-2-(4-(2-(pyrrolidin-1-yl)ethoxy)phenylamino)pyrimidin-4-ylamino)benzenesulfonamide]
[1]
  rescue of PolyIC (dsRNA)-induced neurodegeneration / neuronal death: blocked neurodegeneration in dose dependent manner; also recorded: rescued PolyIC induced neurodegeneration
